The values below come from US5428059A, “Benzopyran derivatives and an anti-allergic agent possessing the same as the active ingredient” (Dainippon Ink & Chemicals, Inc., priority 1991, dated 1995).

The test system of the experiment is Hartley-type male guinea pigs. Put plainly: Guinea Pig Homogeneous Skin Passive Anaphylaxis Assay (PCA reaction). The experiment is classed as in vivo, guinea pig (Hartley-type). The note with it: Cavia porcellus, 10 mg/kg oral, 48 h after sensitization, read-out: Allergic reaction inhibitory index (%). The protocol:
In order to confirm the anti-allergic action of the compounds according to the present invention, as an anti-allergic action confirmation assay, the widely used Guinea Pig Homogeneous Skin Passive Anaphylaxis Assay (PCA Reaction Assay; Passive Cutaneous Anaphylaxis Reaction Assay) was carried out. The assay method used will be explained in the following.
Assay method: Hartley-type male guinea pigs (body weight: 250~300 g) were sensitized by the following procedure; a mixture of 2 μg of egg albumin (OVA) and 5 μg of aluminium hydroxide gel was administered intraperitoneally 3 times every 2 weeks, and the anti-OVA blood serum was manufactured.
The anti-blood serum obtained was then diluted 120 times using physiological saline solution, and then to groups each containing 6 shaved guinea pigs, was injected at a quantity of 0.05 ml respectively, into two positions in the back portion, inside the skin of each animal.
After the 48th hour of sensitization, 10 mg/kg of the test substance to be tested was orally administered, following which a mixture of 2 mg OVA and 5 mg of Evans Blue was administered by intraveneous injection into the hind leg, triggering the anaphylaxis reaction. As the positive control, Tranilast, a well known anti-allergic agent, was used, and in the same manner as the substances to be tested, 100 mg/kg of it was orally administered after the 48th hour of sensitization.
30 minutes after triggering the reaction, the animals were bled to death under ether anesthesia, and their back portion skins were peeled off. The long and short diameters of pigment leakage spots on the interior surface of the skins were measured, and the product of these (mm^2) were entered into formula 1 as "pigment leakage amount", from which the allergic reaction inhibitory index wins calculated. [formula]
I: Allergic reaction inhibitory index (%)
A: Pigment leakage amount of solvent control group
B: Pigment leakage amount of test substance group
C: Pigment leakage amount of […]

In the case of `CCCCCCCCCCOc1cccc2oc(=O)c(OC(=O)c3ccccc3)c(OC/C=C(\C)CCC=C(C)C)c12` [Compound 240, 3-(benzoyloxy)-4-(geranyloxy)-5-(decyloxy)-2H-1-benzopyran-2-one], the inhibition in vivo at 10 mg/kg was found to be 30%.
Consider `CC(=O)Oc1c(OC(=O)c2ccccc2)c2cccc(O)c2oc1=O` [Compound 96, 3-(acetoxy)-4-(benzoyloxy)-8-hydroxy-2H-1-benzopyran-2-one], for which the inhibition in vivo at 10 mg/kg was determined as 32%.
In the case of `CC(C)=CCC/C(C)=C/COc1c(OC(C)C)c(=O)oc2cc(O)ccc12` [Compound 25, 3-(isopropoxy)-4-(geranyloxy)-7-hydroxy-2H-1-benzopyran-2-one], the inhibition in vivo at 10 mg/kg turned out to be 32%.
Regarding `COc1ccc2c(O)c(OC(C)=O)c(=O)oc2c1` [Compound 29, 3-(acetoxy)-4-hydroxy-7-(methoxy)-2H-1-benzopyran-2-one], the inhibition in vivo at 10 mg/kg was determined as 46%.
`COc1cccc2c(OC/C=C(\C)CCC=C(C)C)c(O)c(=O)oc12` [Compound 121, 3-hydroxy-4-(geranyloxy)-8-(methoxy)-2H-1-benzopyran-2-one]: the inhibition in vivo at 10 mg/kg came out at 30%.
The figure for `CCCCCCCCCCOc1c(O)c2c(OC(C)C)cccc2oc1=O` [Compound 214, 3-(decyloxy)-4-hydroxy-5-(isopropoxy)-2H-1-benzopyran-2-one] is 38%; for `CCCCOc1c(OC(=O)c2ccccc2)c(=O)oc2cccc(O)c12` [Compound 224, 3-(benzoyloxy)-4-(butoxy)-5-hydroxy-2H-1-benzopyran-2-one] it is 30%; for `CC(C)=CCC/C(C)=C/COc1cccc2oc(=O)c(O)c(OC(C)C)c12` [Compound 249, 3-hydroxy-4-(isopropoxy)-5-(geranyloxy)-2H-1-benzopyran-2-one] it is 32%.
For the molecule `CCCCCCCCCCOc1cccc2c(OC(C)=O)c(OC/C=C(\C)CCC=C(C)C)c(=O)oc12` [Compound 153, 3-(geranyloxy)-4-(acetoxy)-8-(decyloxy)-2H-1-benzopyran-2-one], the inhibition in vivo at 10 mg/kg is 30%.
As for `CC(C)=CCC/C(C)=C/COc1cccc2c(OC(C)C)c(OC(=O)c3ccccc3)c(=O)oc12` [Compound 165, 3-(benzoyloxy)-4-(isopropoxy)-8-(geranyloxy)-2H-1-benzopyran-2-one], the inhibition in vivo at 10 mg/kg is 30%.
The figure for `CC(C)=CCC/C(C)=C/COc1ccc2c(OC/C=C(\C)CCC=C(C)C)c(O)c(=O)oc2c1` [Compound 84, 3-hydroxy-4,7-(digeranyloxy)-2H-1-benzopyran-2-one] is 30%; for `CC(=O)Oc1c(OC(C)C)c2cccc(O)c2oc1=O` [Compound 100, 3-(acetoxy)-4-(isopropoxy)-8-hydroxy-2H-1-benzopyran-2-one] it is 30%; for `CCCCCCCCCCOc1ccc2c(OC(C)=O)c(OC/C=C(\C)CCC=C(C)C)c(=O)oc2c1` [Compound 69, 3-(geranyloxy)-4-(acetoxy)-7-(decyloxy)-2H-1-benzopyran-2-one] it is 33%.
Take `COc1c(OC/C=C(\C)CCC=C(C)C)c(=O)oc2cc(O)ccc12` [Compound 24, 3-(geranyloxyl)-4-(methoxy)-7-hydroxy-2H-1-benzopyran-2-one]: the inhibition in vivo at 10 mg/kg was found to be 33%.
Then `COc1c(OC(C)=O)c2cccc(OC/C=C(\C)CCC=C(C)C)c2oc1=O` [Compound 166, 3-(methoxy)-4-(acetoxy)-8-(geranyloxy)-2H-1-benzopyran-2-one], with 30%.
In the case of `O=c1oc2ccc(O)cc2c(O)c1O` [Compound 263, 3,4,6-trihydroxy-2H-1-benzopyran-2-one], the inhibition in vivo at 10 mg/kg is 42%.
Consider `COc1ccc2c(OC(C)C)c(OC(C)=O)c(=O)oc2c1` [Compound 32, 3-(acetoxy)-4-(isopropoxy)-7-(methoxy)-2H-1-benzopyran-2-one], for which the inhibition in vivo at 10 mg/kg was 33%.
As for `COc1c(OC/C=C(\C)CCC=C(C)C)c2ccc(OC(C)C)cc2oc1=O` [Compound 56, 3-(methoxy)-4-(geranyloxy)-7-(isopropoxy)-2H-1-benzopyran-2-one], the inhibition in vivo at 10 mg/kg was 31%.
For `COc1c(OC(C)=O)c(=O)oc2cc(OC(C)C)ccc12` [Compound 51, 3-(acetoxy)-4-(methoxy)-7-(isopropoxy)-2H-1-benzopyran-2-one], the inhibition in vivo at 10 mg/kg amounted to 30%.
As for `CCCCCCCCCCOc1cccc2oc(=O)c(OC(=O)c3ccccc3)c(O)c12` [Compound 229, 3-(benzoyloxy)-4-hydroxy-5-(decyloxy)-2H-1-benzopyran-2-one], the inhibition in vivo at 10 mg/kg is 37%.
As for `CC(=O)Oc1c(O)c2ccc(O)cc2oc1=O` [Compound 7, 3-(acetoxy)-4,7-(dihydroxy)-2H-1-benzopyran-2-one], the inhibition in vivo at 10 mg/kg came to 48%.
Then `CC(=O)Oc1c(O)c(=O)oc2cccc(OC(C)C)c12` [Compound 212, 3-hydroxy-4-(acetoxy)-5-(isopropoxy)-2H-1-benzopyran-2-one], with 37%.
For `CC(C)=CCC/C(C)=C/COc1c(OC(=O)c2ccccc2)c(=O)oc2cc(O)ccc12` [Compound 23, 3-(benzoyloxy)-4-(geranyloxy)-7-hydroxy-2H-1-benzopyran-2-one], the inhibition in vivo at 10 mg/kg was determined as 30%.
For the molecule `COc1cccc2oc(=O)c(O)c(OC/C=C(\C)CCC=C(C)C)c12` [Compound 204, 3-hydroxy-4-(geranyloxy)-5-(methoxy)-2H-1-benzopyran-2-one], the inhibition in vivo at 10 mg/kg is 30%.
`CC(C)=CCC/C(C)=C/COc1c(OC(=O)c2ccccc2)c(=O)oc2cccc(O)c12` [Compound 190, 3-(benzoyloxy)-4-(geranyloxy)-5-hydroxy-2H-1-benzopyran-2-one]: the inhibition in vivo at 10 mg/kg was determined as 31%.
`COc1cccc2oc(=O)c(OC(C)=O)c(OC(=O)c3ccccc3)c12` [Compound 197, 3-(acetoxy)-4-(benzoyloxy)-5-(methoxy)-2H-1-benzopyran-2-one]: the inhibition in vivo at 10 mg/kg was determined as 32%.
`CCCCCCCCCCOc1c(OC)c(=O)oc2cc(OC(C)C)ccc12` [Compound 50, 3-(methoxy)-4-(decyloxy)-7-(isopropoxy)-2H-1-benzopyran-2-one]: the inhibition in vivo at 10 mg/kg came to 33%.
Consider `CC(=O)Oc1c(OC/C=C(\C)CCC=C(C)C)c(=O)oc2cc(OC/C=C(\C)CCC=C(C)C)ccc12` [Compound 85, 3,7-(digeranyloxy)-4-(acetoxy)-2H-1-benzopyran-2-one], for which the inhibition in vivo at 10 mg/kg worked out at 33%.
Regarding `CC(C)=CCC/C(C)=C/COc1c(OC(C)C)c(=O)oc2c(OC/C=C(\C)CCC=C(C)C)cccc12` [Compound 172, 3-(isopropoxy)-4,8-(digeranyloxy)-2H-1-benzopyran-2-one], the inhibition in vivo at 10 mg/kg stood at 30%.
As to `CC(C)=CCC/C(C)=C/COc1c(OC/C=C(\C)CCC=C(C)C)c2cccc(O)c2oc1=O` [Compound 109, 3,4-(digeranyloxy)-8-hydroxy-2H-1-benzopyran-2-one], the inhibition in vivo at 10 mg/kg stood at 34%.
As to `COc1c(OC/C=C(\C)CCC=C(C)C)c2c(OC(C)C)cccc2oc1=O` [Compound 222, 3-(methoxy)-4-(geranyloxy)-5-(isopropoxy)-2H-1-benzopyran-2-one], the inhibition in vivo at 10 mg/kg was determined as 32%.
The figure for `CCCCCCCCCCOc1ccc2c(O)c(OC(=O)c3ccccc3)c(=O)oc2c1` [Compound 58, 3-(benzoyloxy)-4-hydroxy-7-(decyloxy)-2H-1-benzopyran-2-one] is 38%.
